Data: patent US20050154060A1, “Anti-inflamatory inhalation pharmaceutical composition” (Galephar Pharmaceutical Research, Inc., priority 2003, published 2005)

How the values were obtained:
interleukine 6 (IL-6) = test: Sputum IL-6 in 12-week placebo controlled study of NAL DPI in COPD patients; type: in vivo, human (COPD patients); conditions: for concentration in IL-6 decreased by: sputum, after 12 weeks of treatment
Description: (§1) A new clinical trial has been performed with a dry powder inhaler (DPI) formulation of NAL in moderate to severely ill COPD patients. The study was performed with two doses of NAL DPI: 20 mg twice a day and 40 mg twice a day versus placebo.
(§2) The complete title of the study was “A 12-week, multicentre, randomised, double-blind, placebo controlled, pilot study of the safety and efficacy of Nacystelyn (20 mg b.i.d. and 40 mg b.i.d.) in patients with chronic obstructive pulmonary disease (COPD).”
(§3) NAL pulmonary administration was performed using a Dry Powder Inhaler consisting of a capsule containing NAL and a carrier, and of an inhalation device.
(§4) During the same study, sputum of COPD patients was collected at baseline (T0), after 4 weeks (w4) and after 12 weeks of treatment (T12).
(§5) The purpose of collecting sputum was to assess if NAL DPI administration could affect (increase or decrease) lung inflammation parameters in such patients. Lung inflammation may be reflected by the sputum concentration of some pro-inflammatory markers, called cytokines, such as interleukine 6 (IL-6) and interleukine 8 (IL-8) or anti-inflammatory markers, such as interleukine 10 (IL-10).
(§6) After collection of the mucus, the said mucus was centrifugated and the cytokines IL-8 and IL-6 were quantified using a validated analytical method. It should be noted that only subjects presenting a quantifiable value of cytokines at the time considered were taken into account.

interleukine 8 (IL-8) = test: Sputum IL-8 in 12-week placebo controlled study of NAL DPI in COPD patients; type: in vivo, human (COPD patients)
Description: as §1, §2, §3, §4, §5, §6

[1] = sputum of COPD patients, NAL DPI 20 mg twice a day, week 4
[2] = sputum of COPD patients, NAL DPI 20 mg twice a day, week 12
[3] = sputum of COPD patients, NAL DPI 40 mg twice a day, week 4
[4] = sputum of COPD patients, NAL DPI 40 mg twice a day, week 12

## CC(=O)N[C@@H](CS)C(=O)O.NCCCC[C@H](N)C(=O)O [NAL, L-Lysine-N-Acetylcysteinate]
Interleukine 6 (IL-6); sputum of COPD patients, 20 mg and 40 mg twice a day
  effect on IL-6 in sputum (in words): decrease of IL-6 in the sputum of COPD patients in a dose related manner
Interleukine 6 (IL-6); [1]
  change in inflammatory marker IL-6, percent change versus baseline: 24%
Interleukine 6 (IL-6); [2]
  change in inflammatory marker IL-6, percent change versus baseline: −17%
Interleukine 6 (IL-6); [3]
  change in inflammatory marker IL-6, percent change versus baseline: 70%
Interleukine 6 (IL-6); [4]
  change in inflammatory marker IL-6, percent change versus baseline: −42%
Interleukine 6 (IL-6); NAL 20 mg
  concentration in IL-6 decreased by: 17%
Interleukine 6 (IL-6); NAL 40 mg
  concentration in IL-6 decreased by: 42%
Interleukine 8 (IL-8); sputum of COPD patients
  effect on IL-8 levels in sputum (in words): significantly decrease the IL-8 levels in the sputum
Interleukine 8 (IL-8); [1]
  change in inflammatory marker IL-8, percent change versus baseline: −13%
Interleukine 8 (IL-8); [2]
  change in inflammatory marker IL-8, percent change versus baseline: −17%
Interleukine 8 (IL-8); [3]
  change in inflammatory marker IL-8, percent change versus baseline: −2%
Interleukine 8 (IL-8); [4]
  change in inflammatory marker IL-8, percent change versus baseline: +3%
Interleukine 8 (IL-8); sputum, after 12 weeks of treatment, NAL 20 mg
  levels of IL-8 decreased by: 17%
Interleukine 8 (IL-8); sputum, after 12 weeks of treatment, NAL 40 mg
  levels of IL-8 increased by: 3%
